{
  "source": "patent US4096112A",
  "about": "“2-Phenyl-indole derivative stabilizers for PVC resins” (Labaz, priority 1976, dated 1978)",
  "key": {"mice [1]": {"tested_on": "mice", "assay": "Maximal dose which does not provoke any death (LD0), oral route, mice", "assay_type": "in vivo", "settings": "for Toxic symptoms: LD0 test", "description": "(§1) A gummy suspension of the substance under study was administered by oral route to groups of at least ten mice and the following results were observed: […]"}, "[2]": {"assay": "Static thermostability of the stabilized resin, simplified method (GARDNER sub-scale in polyvinyl chloride sheets)", "description": "(§2) These studies were performed with five different formulae of vinyl resins (hereinafter referred to as Compounds).\n(§3) The different Compounds were mixed and calendered in a mixer of which the cylinders were heated to 160° C. The rigid sheets so obtained were then heated in an oven to a temperature between 180° C and 215° C, until incipient carbonization.\n(§4) A stove with rotating drums, ventilated and equipped with a thermostat was used for this operation. In the trials described hereunder, the behaviour of the sheets containing one of the stabilizers to be tested was compared to that of sheets of the same formulae but containing 2-phenylindole as stabilizer.\n(2) It is also possible to use a simplified method which is more rapid and with which valid results are also obtained: A reference scale is drawn up with sheets of thermally treated polyvinyl chloride, of which the colorations have been definitely determined in GARDNER degrees as above.\nA GARDNER sub-scale is thus obtained in polyvinyl chloride sheets which can be directly compared to the sheets to be tested without using the comparator."}, "[3]": {"assay": "Acute toxicity (LD50), oral route, mice", "assay_type": "in vivo", "settings": "mouse, in vivo, gummy suspension", "description": "(§5) The acute toxicity (LD50) of the stabilizers listed below was carried out, by determining the dose of substance which provoked the death of 50% of the treated animals.\nas §1"}, "mice [4]": {"tested_on": "mice", "assay": "Acute toxicity (LD50), oral route, mice", "assay_type": "in vivo", "settings": "LD50 test", "description": "as §5, §1"}, "[5]": {"assay_type": "physicochemical", "settings": "water; for Extractibility compared with 2-phenyl-indole: aqueous ethanol and heptane", "description": "The stabilizers according to the invention may be used to stabilize polymers which are intended for the manufacture of packaging and containers for food and drink and it was therefore necessary, in spite of their low toxicity, to determine their extractibility by solvents simulating food and drink. This study was carried out in accordance with the requirements of the Food and Drug Administration (U.S.A). The extractions were performed in semi-rigid bottles, prepared with Compounds Nos. 609 and 676, and with the following solvents: water, an aqueous solution of acetic acid (3%), ethanol-water 50/50, heptane. The ratio of the volume of solvent to the surface of plastic material exposed to extraction was about 1 to 100 ml of solvent, taking into account the geometric characteristics of the bottles. Temperature: 49° C Heating: A thermostated oven for the non-inflammable solvents (water and acetic acid) A thermostated water-bath for the inflammable solvents (alcohol and heptane) Duration of extraction: This is indicated under each result. They are, in each case, intentionally longer than those which would have given stable maximum values. The quantity of stabilizer extracted was determined by colorimetric assay using p-dimethylaminobenzaldehyde, in accordance with the method described in Analytical Chemistry 36, 425-26 (1964). A blank trial was carried out with a Compound of the same formula as Compounds Nos. 609 and 676, but without any stabilizer. A purely negative result was obtained. The amounts of stabilizer assayed are expressed in μg per liter of extraction solvent or, which is the same per 1000 cm^2 of surface submitted to extraction."}, "[6]": {"assay": "Static thermostability of the stabilized resin, GARDNER Scale comparator", "settings": "210° C", "description": "as §2, §3, §4\n(1) The coloration of the sheets, of which samples were removed from the stove at fixed intervals, was compared to a standard scale of coloration, known as the GARDNER Scale and expressed in terms of the reference figures of the GARDNER Scale.\nComparisons were made with a GARDNER Scale comparator which contains 18 filters of coloured glass and which offers the possibility of observing by transparency and in a limited field of view both the sheet and the reference filters."}, "[7]": {"assay": "Thermostability of the stabilizers: thermogravimetric analysis", "assay_type": "physicochemical", "description": "(§6) The thermostability of Stabilizer 2 and that of 2-phenyl-indole were studied by differential thermoanalysis and by thermogravimetric analysis.\nThis analysis necessitated two series of trials carried out under air and under inert gas (argon) in order to eliminate any possible effect of oxygen. The results obtained were identical.\nThe temperature increase rate was 80° /hour.\nThermograms were drawn up under air for both 2-phenyl-indole (i) and for Stabilizer 2 (ii) and enabled the following conclusions to be drawn: […]"}, "[8]": {"assay": "Sublimation of the stabilizers", "assay_type": "physicochemical", "settings": "120° C, 15 Torr, 150 minutes; for Percentage of sublimated substance: cold wall 13° C, 150 mg", "text": "The tendency to sublimate of 2-(3'-methoxy-4'-hydroxy-phenyl)-indole (Stabilizer 2) was compared to that of 2-phenyl-indole.\nA sample of the substance to be tested was introduced into a test tube and heated under reduced pressure. The fraction of sublimated substance was recovered on a mobile cold wall.\nAfter a certain period of time, the sublimated substance was weighed and the result expressed as a percentage of the weight of the starting material.\nThe results obtained can only be of relative value enabling a comparison to be made between two products tested under the same conditions.\nOperating conditions (chosen at random)"}, "[9]": {"assay": "Thermostability of the stabilizers: differential thermoanalysis", "assay_type": "physicochemical", "settings": "2° C/minute, 2 mg", "description": "as §6\nDifferential thermoanalysis diagrams were drawn up by studying 2 mg samples of material placed in a non-airtight container, the rate of temperature increase being 2° C/minute and sensitivity 4 mcal/sec.\nThe diagrams were made out for 2-phenyl-indole (i) and Compound 2 (ii) and enabled the following conclusions to be drawn: […]"}},
  "data": [
    {"smiles": "CCCCOc1ccc(-c2cc3ccccc3[nH]2)cc1OC", "note": "[Stabilizer 25, 2-(3'-methoxy-4'-butyloxy-phenyl)-indole]", "values": [
      {"measurement": "LD0 (maximal dose which does not provoke any death)", "setting": "mice [1]", "value": "> 3000", "unit": "mg/kg"},
      {"measurement": "Toxic symptoms", "setting": "mice [1]", "value": "none"}
    ]},
    {"smiles": "COc1cc(-c2cc3ccccc3[nH]2)ccc1OCc1ccccc1", "note": "[Stabilizer 31, 2-(3'-methoxy-4'-benzyloxy-phenyl)-indole]", "values": [
      {"measurement": "LD0 (maximal dose which does not provoke any death)", "setting": "mice [1]", "value": "> 500", "unit": "mg/kg"},
      {"measurement": "Toxic symptoms", "setting": "mice [1]", "value": "none"}
    ]},
    {"smiles": "COc1cc(OC)cc(-c2cc3ccccc3[nH]2)c1", "note": "[Stabilizer 3, 2-(3',5'-dimethyoxy-phenyl)-indole]", "values": [
      {"measurement": "Static thermostability compared with 2-phenyl-indole", "setting": "[2]; Compound A, 210° C", "value": "markedly superior to 2-phenyl-indole"},
      {"measurement": "LD50", "setting": "[3]", "value": "> 2000", "unit": "mg/kg"},
      {"measurement": "Toxic symptoms", "setting": "mice [4]", "value": "none"}
    ]},
    {"smiles": "COc1cc(-c2cc3ccccc3[nH]2)ccc1O", "note": "[Stabilizer 2, 2-(3'-methoxy-4'-hydroxy-phenyl)-indole]", "values": [
      {"measurement": "Extractibility, times less than 2-phenyl-indole", "setting": "[5]", "value": "at least 10 times less"},
      {"measurement": "Extractibility compared with 2-phenyl-indole", "setting": "[5]", "value": "markedly less extractible than 2-phenyl-indole"},
      {"measurement": "Static thermostability compared with 2-phenyl-indole", "setting": "[2]; Compound C, 210° C", "value": "superior as a stabilizer to 2-phenyl-indole"},
      {"measurement": "Static thermostability compared with 2-phenyl-indole", "setting": "[2]; Compound D, 185° C, 0, 10 and 20 minutes", "value": "markedly superior to 2-phenyl-indole at 0, 10 and 20 minutes"},
      {"measurement": "Static thermostability compared with 2-phenyl-indole", "setting": "[6]; Compound A", "value": "superior to 2-phenylindole"},
      {"measurement": "Static thermostability compared with 2-phenyl-indole", "setting": "[6]; Compound B", "value": "superiority of Stabilizer 2 over 2-phenyl-indole is evident after 21 minutes"},
      {"measurement": "Thermostability compared with 2-phenyl-indole", "setting": "[7]; thermogravimetric analysis and differential thermoanalysis", "value": "greater thermostability than 2-phenyl-indole"},
      {"measurement": "Sublimation compared with 2-phenyl-indole (ratio)", "setting": "[8]", "value": "twenty times less than that of 2-phenyl-indole"},
      {"measurement": "Percentage of sublimated substance", "setting": "[8]", "value": 1.2, "unit": "%"},
      {"measurement": "LD50", "setting": "[3]", "value": "> 2000", "unit": "mg/kg"},
      {"measurement": "Toxic symptoms", "setting": "mice [4]", "value": "none"},
      {"measurement": "Loss of water", "setting": "[9]", "value": "no loss of water"}
    ]},
    {"smiles": "COc1c(C)cc(-c2cc3ccccc3[nH]2)cc1C", "note": "[Stabilizer 17, 2-(3',5'-dimethyl-4'-methoxy-phenyl)-indole]", "values": [
      {"measurement": "LD0 (maximal dose which does not provoke any death)", "setting": "mice [1]", "value": "> 3000", "unit": "mg/kg"},
      {"measurement": "Toxic symptoms", "setting": "mice [1]", "value": "none"}
    ]},
    {"smiles": "COc1ccc(-c2cc3ccccc3[nH]2)cc1O", "note": "[Stabilizer 13, 2-(3'-hydroxy-4'-methoxy-phenyl)-indole]", "values": [
      {"measurement": "Static thermostability compared with 2-phenyl-indole", "setting": "[2]; Compound A, 210° C", "value": "clearly superior to 2-phenyl-indole"}
    ]},
    {"smiles": "CCCCCCCCCCCCc1cc(-c2cc3ccccc3[nH]2)ccc1O", "note": "[Stabilizer 19, 2-(3'-dodecyl-4'-hydroxy-phenyl)-indole]", "values": [
      {"measurement": "Extractibility compared with 2-phenyl-indole", "setting": "[5]", "value": "markedly less extractible than 2-phenyl-indole"}
    ]},
    {"smiles": "c1ccc2[nH]c(-c3ccc4c(c3)OCCO4)cc2c1", "note": "[Stabilizer 34, 2-(3',4'-ethylenedioxy-phenyl)-indole]", "values": [
      {"measurement": "LD0 (maximal dose which does not provoke any death)", "setting": "mice [1]", "value": "> 3000", "unit": "mg/kg"},
      {"measurement": "Toxic symptoms", "setting": "mice [1]", "value": "none"}
    ]},
    {"smiles": "CCOc1ccc(-c2cc3ccccc3[nH]2)cc1OC", "note": "[Stabilizer 23, 2-(3'-methoxy-4'-ethoxy-phenyl)-indole]", "values": [
      {"measurement": "LD0 (maximal dose which does not provoke any death)", "setting": "mice [1]", "value": "> 500", "unit": "mg/kg"},
      {"measurement": "Toxic symptoms", "setting": "mice [1]", "value": "none"}
    ]},
    {"smiles": "CCCCCCCCCCCCOc1ccc(-c2cc3ccccc3[nH]2)cc1C", "note": "[Stabilizer 30, 2-(3'-methyl-4'-dodecyloxy-phenyl)-indole]", "values": [
      {"measurement": "Extractibility compared with 2-phenyl-indole", "setting": "[5]", "value": "markedly less extractible than 2-phenyl-indole"}
    ]},
    {"smiles": "CCCCCCCCCCCCOc1ccc(-c2cc3ccccc3[nH]2)cc1OC", "note": "[Stabilizer 24, 2-(3'-methoxy-4'-dodecyloxy-phenyl)-indole]", "values": [
      {"measurement": "Extractibility compared with 2-phenyl-indole", "setting": "[5]", "value": "markedly less extractible than 2-phenyl-indole"}
    ]},
    {"smiles": "c1ccc2[nH]c(-c3ccc4c(c3)OCO4)cc2c1", "note": "[Stabilizer 33, 2-(3',4'-methylenedioxy-phenyl)-indole]", "values": [
      {"measurement": "LD0 (maximal dose which does not provoke any death)", "setting": "mice [1]", "value": "> 3000", "unit": "mg/kg"},
      {"measurement": "Toxic symptoms", "setting": "mice [1]", "value": "none"}
    ]},
    {"smiles": "CCCCCCCCCCCCc1cc(-c2cc3ccccc3[nH]2)ccc1OC", "note": "[Stabilizer 14, 2-(3'-dodecyl-4'-methoxy-phenyl)-indole]", "values": [
      {"measurement": "Extractibility compared with 2-phenyl-indole", "setting": "[5]", "value": "markedly less extractible than 2-phenyl-indole"},
      {"measurement": "LD50", "setting": "[3]", "value": "> 3000", "unit": "mg/kg"},
      {"measurement": "Toxic symptoms", "setting": "mice [4]", "value": "none"}
    ]},
    {"smiles": "COc1ccc(-c2cc3ccccc3[nH]2)cc1OCc1ccccc1", "note": "[Stabilizer 29, 2-(3'-benzyloxy-4'-methoxy-phenyl)indole]", "values": [
      {"measurement": "LD0 (maximal dose which does not provoke any death)", "setting": "mice [1]", "value": "> 500", "unit": "mg/kg"},
      {"measurement": "Toxic symptoms", "setting": "mice [1]", "value": "none"}
    ]},
    {"smiles": "COc1cc(-c2cc3ccccc3[nH]2)ccc1OC(C)C", "note": "[Stabilizer 27, 2-(3'-methoxy-4'-isopropyloxy-phenyl)-indole]", "values": [
      {"measurement": "LD0 (maximal dose which does not provoke any death)", "setting": "mice [1]", "value": "> 3000", "unit": "mg/kg"},
      {"measurement": "Toxic symptoms", "setting": "mice [1]", "value": "none"}
    ]},
    {"smiles": "c1ccc(-c2cc3ccccc3[nH]2)cc1", "note": "[2-phenyl-indole]", "values": [
      {"measurement": "Residue / decomposition", "setting": "[7]; under air, 210° C", "value": "a yellowish residue was, in fact, obtained at 210 °C which constitutes proof of decomposition"},
      {"measurement": "Percentage of sublimated substance", "setting": "[8]", "value": 26.9, "unit": "%"},
      {"measurement": "Toxic symptoms", "setting": "mice [4]", "value": "none"},
      {"measurement": "Loss of water", "setting": "[9]", "value": "no loss of water at 100 °C"}
    ]},
    {"smiles": "COc1ccc(-c2cc3ccccc3[nH]2)cc1C(C)C", "note": "[Stabilizer 15, 2-(3'-isopropyl-4'-methoxy-phenyl)-indole]", "values": [
      {"measurement": "LD50", "setting": "[3]", "value": "> 3000", "unit": "mg/kg"},
      {"measurement": "Toxic symptoms", "setting": "mice [4]", "value": "none"}
    ]}
  ]
}
